Measured values published in paper PMC12348882, “Rational Design, Synthesis and In Vitro Activity of Diastereomeric Cis-/Trans-3-Substituted-3,4-Dihydroisocoumarin-4-Carboxylic Acids as Potential Carnitine Acetyltransferase Inhibitors” (Molecules, 2025).
Entries after “also recorded” stand apart in the source; their conditions may differ.

Key:
[1] = molecular target: T1, carnitine acetyltransferase (CAT) (Columba livia, UniProt P52826); experiment: Initial screening of CAT inhibition, spectrophotometric kinetic method with Ellman's reagent; format: biochemical; settings: read in first minute of reaction; for inhibition at 100 µM: read-out: CAT inhibition (%), inhibitor 100 μM; for inhibition at 250 µM: read-out: CAT inhibition (%), inhibitor 250 μM; for inhibition at 1000 µM: read-out: CAT inhibition (%), inhibitor 1000 μM
T1 construct: an enzyme isolated from pigeon breast muscle (Sigma Aldrich) was used in the form of an ammonium sulfate suspension; tissue Sigma-Aldrich; host or cells: pigeon breast muscle
T1 sequence (P52826 31-627): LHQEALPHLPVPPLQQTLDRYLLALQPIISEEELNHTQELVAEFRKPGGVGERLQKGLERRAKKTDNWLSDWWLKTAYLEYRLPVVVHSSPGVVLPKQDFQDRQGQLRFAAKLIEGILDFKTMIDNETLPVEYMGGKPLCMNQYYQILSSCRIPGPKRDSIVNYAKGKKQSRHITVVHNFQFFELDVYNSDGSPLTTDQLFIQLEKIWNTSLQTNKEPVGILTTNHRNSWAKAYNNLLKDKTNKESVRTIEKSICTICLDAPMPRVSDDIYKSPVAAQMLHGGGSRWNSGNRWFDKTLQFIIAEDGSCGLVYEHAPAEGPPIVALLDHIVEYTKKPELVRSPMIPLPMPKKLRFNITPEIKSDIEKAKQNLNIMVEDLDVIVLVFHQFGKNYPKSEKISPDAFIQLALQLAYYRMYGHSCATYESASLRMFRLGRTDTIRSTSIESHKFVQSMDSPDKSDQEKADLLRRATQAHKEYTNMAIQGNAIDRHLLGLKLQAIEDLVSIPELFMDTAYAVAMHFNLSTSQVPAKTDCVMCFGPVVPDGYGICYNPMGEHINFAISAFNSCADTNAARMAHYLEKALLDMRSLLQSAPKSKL
Experimental: To assess the inhibitory potential of the synthesized compounds against CAT, we conducted an initial screening at three concentrations: 100 μM, 250 μM and 1000 μM. Readings were taken within the first minute after the reaction started, and inhibition was measured using a kinetic method, as described in the Experimental section. The results are summarized and presented as a percentage of inhibition in Figure 2 and Figure 3 for the 3-alkyl-3,4-dihydroisocoumarin-4-carboxylic acids and the 3-alkyl/3-aryl-6,7-dimethoxy-3,4-dihydroisocoumarin-4-carboxylic acids, respectively.
To determine the effect of the synthesized compounds on CAT activity, a modified procedure for spectrophotometric determination of L-carnitine using Ellman’s reagent was used. In all analyses, an enzyme isolated from pigeon breast muscle (Sigma Aldrich) was used in the form of an ammonium sulfate suspension with an activity of 71 U/mg protein. One unit of enzyme catalyzes the conversion of 1 μmol of L-carnitine and acetyl-CoA into acetylcarnitine and free CoA in 1 min. Phosphate buffer (0.5 M, pH = 7.6) is used to dilute the enzyme to obtain a stock solution with a concentration of 24 U/mL.
Ellman’s reagent was prepared immediately before each measurement by dissolving 25 mg DTNB in 5 mL 1 mM solution of Na2EDTA in phosphate buffer (0.5 M, pH = 7.6). Stock solutions of acetyl-CoA and L-carnitine were prepared in deionized water with concentrations of 348.0 μM and 303.4, respectively. An aqueous solution of tris (hydroxymethyl) aminomethane (TRIS) with pH = 7.6 and 1 M concentration was used as a buffer solution. Test compounds were dissolved and diluted in phosphate buffer (0.5 M, pH = 7.6) to the desired stock concentration. The working volume of the reaction is 300 μL and contains 50 μL of each of the six components (DTNB, TRIS, acetyl-CoA, CAT, L-carnitine and inhibitor) solutions with concentrations as described below. In the control samples, the inhibitor solution is replaced with phosphate buffer (0.5 M, pH = 7.6). The incubation time for all components without L-carnitine is 5 min at 37 °C. The reaction was started by adding L-carnitine, and its progress was monitored by reading the change in absorbance at 405 nm in kinetic mode. The concentrations of the components in the final volume were, c (DTNB) = 114 μM, c (TRIS) = 100 mM, c (acetyl-CoA) = 58 μM, c (CAT) = 4 U/mL and c (L-carnitine) = 50.56 μM. The time for reading the results was the first minute after starting the reaction.

[2] = molecular target: T1, carnitine acetyltransferase (CAT); experiment: Kinetic studies of CAT inhibition mechanism (Michaelis-Menten / Lineweaver-Burk, SigmaPlot regression); format: biochemical, pigeon; settings: for Ki: mixed-type inhibition model, L-carnitine varied; for Type / mechanism of inhibition: model chosen by R^2, AIC and Sy,x
Source text: These experiments allowed us to identify the inhibition mechanism and calculate Km, Vmax and Ki. We used SigmaPlot version 12.5 (Systat Software Inc., San Jose, CA, USA), which includes modules for regression analysis and various inhibition models. This software also lets us choose the mechanism of inhibition with the highest correlation factors (coefficient of determination (R^2) and Akaike information coefficient (AIC)) and the lowest Sy,x value. The numerical results are summarized in Table 1, while the corresponding Lineweaver–Burk and Michaelis–Menten kinetic plots are available in the Supplementary Materials.
(Michaelis-Menten) and 1/v0 vs. […] (Lainweaver-Burke) relationships. For this purpose, five solutions with different concentrations of the inhibitor and five solutions with different concentrations of L-carnitine were prepared. […] The time for reading the results is every six seconds for three minutes after the start of the reaction, which corresponds to the end of the linear interval. The initial velocity v0 was determined using the method proposed by Baici, by calculating the cut-off of the v vs. t (time) dependence for the linear interval of each of the reactions. Graphical dependencies are provided in the Supplementary Materials (Figures S1–S3).
Figure S2. Graphs representing the dependence of the initial velocity (v 0) on the concentration of the substrate [S], according to the model of Michaelis -Menten – left, and Lineweaver-Burk – right, for reversible a) mixed, b) non-competitive, c) uncompetitive and d) competitive inhibition. The concentration of the inhibitor - compound cis-8 are 0 μM, 25.6 μM, 51.2 μM and 68.3 μM, concentration of L-carnitine are 94 μM, 180 μM, 370 μM, 750 μM and 1500 μM.
Figure S3. Graphs representing the dependence of the initial velocity (v 0) on the concentration of […]
for reversible a) mixed, b) uncompetitive, c) non-competitive and d) competitive inhibition. The concentration of the inhibitor - compound trans-8 are 0 μM, 26.0 μM, 52.0 and 69.4 μM,

[3] = molecular target: carnitine acetyltransferase (CAT); design: method as in PMID 39942839; settings: positive control; ref [21]; cited from earlier work
[4] = fit to competitive inhibition model
[5] = fit to non-competitive inhibition model
[6] = fit to uncompetitive inhibition model
[7] = non-competitive inhibition model

## CCCC1OC(=O)c2ccccc2C1C(=O)O (mixture of isomers) [M2-1, Cis- and Trans-(±)-3-Propyl-3,4-Dihydro-1-Oxo-1H-Isochromene-4-Carboxylic Acids]
[1]; inhibitor 100 μM
  CAT inhibition (%): 1%
[1]; inhibitor 250 μM
  CAT inhibition (%): 3%
[1]; inhibitor 1000 μM
  CAT inhibition (%): 7%

## CCCCCCCC1OC(=O)c2ccccc2C1C(=O)O (racemic) [cis-2, Cis- and Trans-(±)-3-Heptyl-3,4-Dihydro-1-Oxo-1H-Isochromene-4-Carboxylic Acids]
[1]
  inhibition at 100 µM: 3%
  inhibition at 250 µM: 10%
  inhibition at 1000 µM: 16%

## CCCCCCCCCC1OC(=O)c2ccccc2C1C(=O)O (racemic) [cis-3, Cis- and Trans-(±)-3,4-Dihydro-3-Nonyl-1-Oxo-1H-Isochromene-4-Carboxylic Acids]
[1]
  inhibition at 100 µM: 9%
  inhibition at 250 µM: 28%
  inhibition at 1000 µM: 97%

## CCCCCCCCCCC1OC(=O)c2ccccc2C1C(=O)O (racemic) [cis-4, Cis- and Trans-(±)-3-Decyl-3,4-Dihydro-1-Oxo-1H-Isochromene-4-Carboxylic Acids]
[1]; inhibitor 100 μM, 100 µM
  CAT inhibition (%): 31%
[1]
  inhibition at 250 µM: 96%
  inhibition at 1000 µM: 97%

## CCCCCCCC1OC(=O)c2cc(OC)c(OC)cc2C1C(=O)O (racemic) [cis-6, Cis- and Trans-(±)-3-Heptyl-3,4-Dihydro-6,7-Dimethoxy-1-Oxo-1H-Isochromene-4-Carboxylic Acids]
[1]
  inhibition at 1000 µM: 27%

## CCCCCCCCCC1OC(=O)c2cc(OC)c(OC)cc2C1C(=O)O (racemic) [cis-7, Cis- and Trans-(±)-3,4-Dihydro-6,7-Dimethoxy-3-Nonyl-1-Oxo-1H-Isochromene-4-Carboxylic Acids]
[1]
  inhibition at 100 µM: 8%
  inhibition at 250 µM: 43%
  inhibition at 1000 µM: 85%

## CCCCCCCCCCC1OC(=O)c2cc(OC)c(OC)cc2C1C(=O)O (racemic) [cis-8, Cis- and Trans-(±)-3-Decyl-3,4-Dihydro-6,7-Dimethoxy-1-Oxo-1H-Isochromene-4-Carboxylic Acids]
[2]; [4]
  AIC: −1519.782
  Sy,x: 5.211 × 10^−9
[2]; fit to mixed inhibition model
  AIC: −1562.764
  Sy,x: 2.987 × 10^−9
[2]; [5]
  AIC: −1565.380
  Sy,x: 2.947 × 10^−9
[2]; [6]
  AIC: −1550.555
  Sy,x: 3.547 × 10^−9
[2]; mixed inhibition model
  α: 0.97
[2]
  Ki: 130 µM
  Type / mechanism of inhibition: mixed-type inhibitors; also recorded: allosteric inhibitor
[2]; listed as cis-3-decyl-6,7-dimethoxy-3,4-dihydroisocoumarin-4-carboxylic acid
  Type / mechanism of inhibition: mixed inhibition
[2]; [7]
  α: 1
[1]
  inhibition at 100 µM: 44%
  inhibition at 250 µM: 71%
  inhibition at 1000 µM: 85%

## COc1cc2c(cc1OC)C(C(=O)O)C(c1cccc(OC)c1OC)OC2=O (racemic) [cis-10, Cis- and Trans-(±)-3,4-Dihydro-3-(2,3-Dimethoxyphenyl)-6,7-Dimethoxy-1-Oxo-1H-Isochromene-4-Carboxylic Acids]
[1]
  inhibition at 100 µM: 1%
  inhibition at 250 µM: 2%
  inhibition at 1000 µM: 12%

## CCCCCCCC1OC(=O)c2ccccc2C1C(=O)O (racemic) [trans-2, Cis- and Trans-(±)-3-Heptyl-3,4-Dihydro-1-Oxo-1H-Isochromene-4-Carboxylic Acids]
[1]; inhibitor 100 μM, 100 µM
  CAT inhibition (%): 4%
[1]; inhibitor 250 μM, 250 µM
  CAT inhibition (%): 6%
[1]; inhibitor 1000 μM, 1000 µM
  CAT inhibition (%): 25%

## CCCCCCCCCC1OC(=O)c2ccccc2C1C(=O)O (racemic) [trans-3, Cis- and Trans-(±)-3,4-Dihydro-3-Nonyl-1-Oxo-1H-Isochromene-4-Carboxylic Acids]
[1]; inhibitor 100 μM, 100 µM
  CAT inhibition (%): 17%
[1]; inhibitor 250 μM, 250 µM
  CAT inhibition (%): 40%
[1]; inhibitor 1000 μM, 1000 µM
  CAT inhibition (%): 91%

## CCCCCCCCCCC1OC(=O)c2ccccc2C1C(=O)O (racemic) [trans-4, Cis- and Trans-(±)-3-Decyl-3,4-Dihydro-1-Oxo-1H-Isochromene-4-Carboxylic Acids]
[1]; inhibitor 100 μM, 100 µM
  CAT inhibition (%): 54%
[1]; inhibitor 250 μM, 250 µM
  CAT inhibition (%): 79%
[1]; inhibitor 1000 μM
  CAT inhibition (%): 97%

## CCCCCCCCCCC1OC(=O)c2cc(OC)c(OC)cc2C1C(=O)O (racemic) [trans-8, Cis- and Trans-(±)-3-Decyl-3,4-Dihydro-6,7-Dimethoxy-1-Oxo-1H-Isochromene-4-Carboxylic Acids]
[2]; [4]
  AIC: −1490.723
  Sy,x: 7.493 × 10^−9
[2]; fit to mixed inhibition model
  AIC: −1548.364
  Sy,x: 3.576 × 10^−9
[2]; [5]
  AIC: −1542.332
  Sy,x: 3.931 × 10^−9
[2]; [6]
  AIC: −1548.795
  Sy,x: 3.626 × 10^−9
[2]; mixed inhibition model
  α: 0.21
[2]
  Ki: 377 µM
  Type / mechanism of inhibition: mixed-type inhibitors
[2]; listed as trans-3-decyl-6,7-dimethoxy-3,4-dihydroisocoumarin-4-carboxylic acid
  Type / mechanism of inhibition: mixed inhibition
[2]; [7]
  α: 1

## COc1cc2c(cc1OC)C(C(=O)O)C(c1ccccc1)OC2=O (racemic) [trans-9, Cis- and Trans-(±)-3,4-Dihydro-6,7-Dimethoxy-1-Oxo-3-Phenyl-1H-Isochromene-4-Carboxylic Acids]
[1]
  inhibition at 100 µM: 1%

## C[N+](C)(C)NCCC(=O)[O-] [Meldonium]
[3]
  IC50: 11400 µM

## COc1ccc(OC)c(C2OC(=O)c3cc(OC)c(OC)cc3C2C(=O)O)c1 (stereo not drawn) [cis-11, Cis- and Trans-(±)-3,4-Dihydro-3-(2,5-Dimethoxyphenyl)-6,7-Dimethoxy-1-Oxo-1H-Isochromene-4-Carboxylic Acids]
[1]
  inhibition at 100 µM: 1%
  inhibition at 250 µM: 6%
  inhibition at 1000 µM: 22%
